Measured values as given in the supplement of paper PMC5908809.

What was measured:
[1] = system: normal NK cells expanded with K562-aAPC; test: percent inhibition of viability; higher = more inhibition; conditions: 72 h, IL-2 2.5 ng/mL
Description: (§1)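 Drug sensitivity and resistance testing on K562-aAPC-expanded normal NK cells: 5 concentrations (10-fold steps over a 10,000-fold range), 72 h at 37 °C, viability by CellTiter-Glo normalised to DMSO and benzethonium chloride controls; DSS from the fitted curve.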

DERL-7 (IL-2 2.5 ng/mL) [2] = test: as above; conditions: 72 h
IMC-1 (IL-2 20 ng/mL) [3] = test: as above; conditions: 72 h
KAI3 (IL-2 2.5 ng/mL) [4] = test: as above; conditions: 72 h
KHYG-1 (IL-2 2.5 ng/mL) [5] = test: as above; conditions: 72 h
NK-92 (IL-2 2.5 ng/mL) [6] = test: as above; conditions: 72 h
NK-YS (IL-2 2.5 ng/mL) [7] = test: as above; conditions: 72 h
NKL (IL-2 2.5 ng/mL) [8] = test: as above; conditions: 72 h
SNK-6 (IL-2 2.5 ng/mL) [9] = test: as above; conditions: 72 h
YT (IL-2 2.5 ng/mL) [10] = test: as above; conditions: 72 h
[11] = system: normal primary NK cells, pool 1 (3 donors) (IL-2 2.5 ng/mL); test: as above; conditions: 72 h
[12] = system: normal primary NK cells, pool 1 (3 donors), resting (IL-2 0 ng/mL); test: as above; conditions: 72 h
[13] = system: normal primary NK cells, pool 2 (3 donors) (IL-2 2.5 ng/mL); test: as above; conditions: 72 h
[14] = system: normal primary NK cells, pool 3 (3 donors) (IL-2 2.5 ng/mL); test: as above; conditions: 72 h
[15] = system: normal NK cells expanded with K562-aAPC; test: drug sensitivity score (DSS) (DSS units); higher = more sensitive; extreme values may be limits of the assay; conditions: 72 h; IL-2 2.5 ng/mL
Description: as §1

DERL-7 (IL-2 2.5 ng/mL) [16] = test: as above; conditions: 72 h
IMC-1 (IL-2 20 ng/mL) [17] = test: as above; conditions: 72 h
KAI3 (IL-2 2.5 ng/mL) [18] = test: as above; conditions: 72 h
KHYG-1 (IL-2 2.5 ng/mL) [19] = test: as above; conditions: 72 h
NK-92 (IL-2 2.5 ng/mL) [20] = test: as above; conditions: 72 h
NK-YS (IL-2 2.5 ng/mL) [21] = test: as above; conditions: 72 h
NKL (IL-2 2.5 ng/mL) [22] = test: as above; conditions: 72 h
SNK-6 (IL-2 2.5 ng/mL) [23] = test: as above; conditions: 72 h
YT (IL-2 2.5 ng/mL) [24] = test: as above; conditions: 72 h
[25] = system: normal primary NK cells, pool 1 (3 donors) (IL-2 2.5 ng/mL); test: as above; conditions: 72 h
[26] = system: normal primary NK cells, pool 1 (3 donors), resting (IL-2 0 ng/mL); test: as above; conditions: 72 h
[27] = system: normal primary NK cells, pool 2 (3 donors) (IL-2 2.5 ng/mL); test: as above; conditions: 72 h
[28] = system: normal primary NK cells, pool 3 (3 donors) (IL-2 2.5 ng/mL); test: as above; conditions: 72 h

CCCS(=O)(=O)Nc1ccc(F)c(C(=O)c2c[nH]c3ncc(-c4ccc(Cl)cc4)cc23)c1F [Vemurafenib] (max concentration tested 10000 nM)
percent inhibition of viability [%]
Conditions | 1 nM | 10 nM | 100 nM | 1000 nM | 10000 nM
DERL-7 (IL-2 2.5 ng/mL) [2] | 3.23 | 0.38 | 4.34 | 15.4 | 79.5
IMC-1 (IL-2 20 ng/mL) [3] | -6.37 | -7.47 | -1.05 | -3.36 | 37.8
KAI3 (IL-2 2.5 ng/mL) [4] | -2.25 | -4.57 | -1.04 | 12.3 | 75.2
KHYG-1 (IL-2 2.5 ng/mL) [5] | 1.21 | -7.43 | 3.43 | 42.5 | 105
NK-92 (IL-2 2.5 ng/mL) [6] | -0.79 | 1.62 | 12 | 22.6 | 89.5
NK-YS (IL-2 2.5 ng/mL) [7] | -2.8 | -10.1 | -3.62 | 0.91 | 77.1
NKL (IL-2 2.5 ng/mL) [8] | -13.6 | -17.7 | -12.3 | 12.2 | 73.1
SNK-6 (IL-2 2.5 ng/mL) [9] | -12.9 | -2.01 | -17 | -0.04 | 92.6
YT (IL-2 2.5 ng/mL) [10] | 1.23 | -1.61 | 4.12 | 16.2 | 98.7
[1] | -5.54 | -6.29 | -9.37 | -4.54 | 5.8
[11] | -3.98 | -7.14 | 1.09 | 0.31 | -3.81
[12] | 3.45 | -3.02 | 6.61 | 23.4 | 23.8
[13] | -1.54 | -1.23 | 6.03 | 0.86 | 9.89
[14] | 0.76 | -2.71 | 6.1 | 0.26 | 0.17

Conditions | drug sensitivity score
DERL-7 (IL-2 2.5 ng/mL) [16] | 6.92
IMC-1 (IL-2 20 ng/mL) [17] | 1.59
KAI3 (IL-2 2.5 ng/mL) [18] | 6.2
KHYG-1 (IL-2 2.5 ng/mL) [19] | 11.1
NK-92 (IL-2 2.5 ng/mL) [20] | 8.16
NK-YS (IL-2 2.5 ng/mL) [21] | 4.38
NKL (IL-2 2.5 ng/mL) [22] | 6.06
SNK-6 (IL-2 2.5 ng/mL) [23] | 5.17
YT (IL-2 2.5 ng/mL) [24] | 8.15
[15] | 0
[25] | 0
[26] | 4.54
[27] | 0
[28] | 0

COc1ccc(CCc2nc3cc(-c4c(C)noc4C)ccc3n2C[C@H](C)N2CCOCC2)cc1Cl [SGC-CBP30] (max concentration tested 25000 nM)
percent inhibition of viability [%]
Conditions | 2.5 nM | 25 nM | 250 nM | 2500 nM | 25000 nM
DERL-7 (IL-2 2.5 ng/mL) [2] | 0.1 | 3.95 | 12.3 | 60.5 | 96.1
IMC-1 (IL-2 20 ng/mL) [3] | -7.53 | -9.31 | -8.36 | -20.2 | 35.3
KAI3 (IL-2 2.5 ng/mL) [4] | 1.53 | -3.88 | -18.5 | -12.8 | 51.8
KHYG-1 (IL-2 2.5 ng/mL) [5] | -1.44 | -8.58 | -1.59 | 16.4 | 99.4
NK-92 (IL-2 2.5 ng/mL) [6] | -16.2 | -20.5 | -26.2 | -17.7 | 64.4
NK-YS (IL-2 2.5 ng/mL) [7] | -1.97 | -5.16 | 0.38 | 22.5 | 67.9
NKL (IL-2 2.5 ng/mL) [8] | 0.5 | 1.11 | 1.38 | 53.1 | 72.8
SNK-6 (IL-2 2.5 ng/mL) [9] | -3.48 | -9.35 | 6.99 | 15.5 | 20.9
YT (IL-2 2.5 ng/mL) [10] | -1.31 | -7.71 | -7.11 | 10.1 | 70
[1] | -5.48 | -4.45 | -3.35 | 8.12 | 84.2
[11] | -4.81 | 2.68 | 13 | 33.8 | 96.6
[12] | 18.2 | 2.19 | 20.6 | 19.9 | 86
[13] | -5.14 | -1.93 | 8.85 | 24.7 | 90.1
[14] | -5.75 | -3.57 | 2.2 | 8.83 | 68.9

Conditions | drug sensitivity score
DERL-7 (IL-2 2.5 ng/mL) [16] | 13.3
IMC-1 (IL-2 20 ng/mL) [17] | 1.04
KAI3 (IL-2 2.5 ng/mL) [18] | 2.09
KHYG-1 (IL-2 2.5 ng/mL) [19] | 8.22
NK-92 (IL-2 2.5 ng/mL) [20] | 2.67
NK-YS (IL-2 2.5 ng/mL) [21] | 6.98
NKL (IL-2 2.5 ng/mL) [22] | 10.4
SNK-6 (IL-2 2.5 ng/mL) [23] | 2.41
YT (IL-2 2.5 ng/mL) [24] | 5.56
[15] | 5.98
[25] | 9.22
[26] | 7.45
[27] | 8.45
[28] | 5.27
